Data: patent US11919854B2, “P2RX7 modulators in therapy” (Centre national de la recherche scientifique, priority 2018, dated 2024)

Tests used:
[1] = Stability in mouse liver microsomes; assay type: in vitro ADME; conditions: 1 μM; 0, 5, 10, 20, 30 and 40 min; mass spectrometry
Procedure: A. HEI-2328 and -3090 are stable molecules. Mouse liver microsomes from BD Gentest (ref 5345001) were incubated with HEI-2314, -2328, -2333 and -3090 at 1 μM for 0, 5, 10, 20, 30 and 40 min. The stability of the compounds was assayed by mass spectrometry.
Stability was studied in the mouse liver microsome system—and human, not shown—(FIG. 13A) and directly in vivo, for HEI3090 molecule (FIG. 13B). These experiments highlighted that HEI3090 is found at a concentration of maximum 2.5 μM in the plasma of mice injected with HEI3090 (ip, 1.5 mg/kg in 10% DMSO).

[2] = Solubility (qualitative statement); assay type: physicochemical
[3] = test system: B16F10 melanoma cell line; experiment: Large pore opening (Topro3) in B16F10 melanoma cell line; assay type: cell-based
Procedure: Calcium channel activity (Fluo4AM probe) and large pore opening (Topro3 probe) were analysed by FACS. Unstimulated (NS) or cells treated with HEI2328 (50 μM) alone or with BzATP (500 μM) were analysed. (A) Representative dots plots. Numbers highlighted the percentage of positive cells.
A. Large pore opening. Dot plot of representative experiment. Numbers highlighted the percentage of positive cells. […] B. representative curve of XTT absorbance over the time. […] Mean±SEM are shown. ***, p<0.001; ****, p<0.0001 Mann-Whitney test.
4.1. […] To test this hypothesis, immunocompetent C57B6J (Envigo, Gannat France) mice were injected with the melanoma cell line B16-F10.
Of interest, potentiation of large pore opening correlated with increased-B16F10 cell death, as illustrated in FIG. 9. Cells treated during 1 h with BzATP and HEI3090 incorporated 3-fold more Topro3 than cells treated with BzATP only (FIG. 9A). Longer incubation increased cell death, since it was observed up to 80% of dead cells after 3 h treatment (FIG. 9B).

[4] = test system: B16F10 cells; experiment: Syngeneic tumor mice model, B16F10 subcutaneous; assay type: in vivo, C57BL/6 mice
Procedure: 5×10^5 B16F10 cells were injected sub cutaneously in the right flank of C57BL/6 mice. Mice received HEI2328 (n=8, ip, 2.3 mg/kg in 10% DMSO/PBS) daily or placebo (n=8, 10% DMSO/PBS). A. incidence of tumor appearance B. Tumor size (mm2) and C. tumor weight at sacrifice day (J12). *, p<0.05 (Mann-Whitney test).
5×10^5 LLC or 5×10^5 B16F10 cells were injected sub cutaneously in the right flank of C57BL6 mice. Mice received HEI3090 (ip, 2.5 mg/kg in 10% DMSO/PBS) daily or placebo (10% DMSO/PBS). A,C. incidence of tumor appearance B,D. Tumor size (mm2) and tumor weight at sacrifice day (J12). E. HEI-treated tumors are more immunogenic. Expression of CMH1 (H2K^b/D^b) and PD-L1 by LLC (black) and B16F10 (grey) tumors is shown in dot plots. Numbers highlighted the percentage of tumor cells positive for H2K^b/D^b and PD-L1. […] F. CD-45 positive infiltrates is increased in LLC and B16F10 tumors. *, p<0.05; **, p<0.01; ***, p<0.001 Mann-Whitney test.
5×10^5 LLC or 5×10^5 B16F10 cells were injected sub cutaneously in the right flank of C57BL6 mice. Mice received HEI3090 (ip, 2.5 mg/kg in 10% DMSO/PBS) daily or placebo (10% DMSO/PBS). A. The quantity of immunosuppressive cells is reduced. Dot plot of representative experiment. Numbers highlighted the percentage of M-MDSC and PMN-MDSC. […] B. The quantity of effector T cells ([…], NK, CD4+) is increased.
Therefore the inventors tested this compound on a classical tumor mice model. 5×10^5 B16F10 cells (in 200 μl PBS) were injected subcutaneously in the right flank of C57B16 mice that received a daily intraperitoneal injection of 2.3 mg/kg HEI2328 (in PBS/10% DMSO) or placebo (PBS/10% DMSO) for 12 days. […] However, this encouraging result was not statistically significant.
4.2. By killing tumoral cells, HEI3090 may represent a new anti-tumor treatment. To test this hypothesis, immunocompetent C57B16J mice were subcutaneously injected with 5×10^5 B16F10 or 5×10^5 LLC (Lewis Lung Cancer) cells and treated daily with HEI3090 (ip, 2.5 mg/kg in 10% DMSO/PBS) or placebo (10% DMSO/PBS). […] In both tumor mice models, tumors weight in the treated group was reduced by 10-fold in the B16F10 model (8 mg vs 81 mg) and by 4-folds in the LLC model (80 mg vs 295 mg). Of interest, tumors from the HEI3090 treated group are more immunogenic than tumors from the placebo group.

[5] = biological target: T1, human P2RX7 (Homo sapiens, UniProt Q99572); experiment: Large pore opening with increasing BzATP in human P2RX7 expressing cells; assay type: cell-based; conditions: increasing concentration of BzATP with or without HEI3090
T1 construct: expressed in transfected cells; host or cells: HEK cells
T1 sequence (Q99572 1-595): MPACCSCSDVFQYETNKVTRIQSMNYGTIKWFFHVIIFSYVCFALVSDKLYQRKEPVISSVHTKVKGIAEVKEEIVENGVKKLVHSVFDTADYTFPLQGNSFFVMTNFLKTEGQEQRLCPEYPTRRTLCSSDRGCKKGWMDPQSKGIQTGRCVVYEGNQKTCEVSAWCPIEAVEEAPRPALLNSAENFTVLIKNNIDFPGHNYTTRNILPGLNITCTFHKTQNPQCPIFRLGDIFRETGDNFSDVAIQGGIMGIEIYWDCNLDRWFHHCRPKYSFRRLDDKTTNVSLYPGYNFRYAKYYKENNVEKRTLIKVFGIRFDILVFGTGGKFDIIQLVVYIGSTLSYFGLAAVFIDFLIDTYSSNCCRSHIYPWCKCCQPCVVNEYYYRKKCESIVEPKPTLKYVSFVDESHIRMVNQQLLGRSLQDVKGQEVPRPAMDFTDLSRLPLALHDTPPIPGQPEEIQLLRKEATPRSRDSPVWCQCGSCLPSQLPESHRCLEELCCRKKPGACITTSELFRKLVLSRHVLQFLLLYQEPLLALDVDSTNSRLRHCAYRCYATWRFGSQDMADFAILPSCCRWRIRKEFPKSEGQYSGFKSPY
Procedure: A. Splenocytes from control or p2rx7^exon2 KO mice were isolated and treated with HEI3090 (50 μM) in presence of absence of BzATP (500 μM). B. Large pore opening induced by increasing concentration of BzATP in presence or absence of HEI3090 in human P2RX7 expressing cells.
Indeed, with the same BzATP concentration, more cells are positive for Topro3 staining.

Row | SMILES | stability in mouse liver microsomes [1] | solubility [2] | increase of large pore opening (Topro3 positive cells) ([3]; HEI2328 50 μM added on BzATP (500 μM) treated cells) | toxic effect of compound alone ([3]; absence of BzATP, 50 μM) | tumor incidence ([4]; HEI2328 2.3 mg/kg ip daily, 12 days) | decrease of tumor growth ([4]; HEI2328 2.3 mg/kg ip daily, 12 days, not statistically significant) [%] | Topro3 incorporation vs cells treated with BzATP only ([3]; 1 h with BzATP and HEI3090) [fold] | immunosuppressive cells (M-MDSC) in tumor infiltrates ([4]; HEI3090 ip 2.5 mg/kg daily) | tumors weight ([4]; HEI3090 ip 2.5 mg/kg daily (placebo 81 mg)) [mg] | reduction of tumors weight ([4]; HEI3090 ip 2.5 mg/kg daily, vs placebo) [fold] | large pore opening (Topro3 staining) [5]
1 | O=C(NCc1ccc(Cl)cc1Cl)[C@@H]1CCC(=O)N1C(=O)Nc1ccc(Cl)c(Cl)c1 [HEI2328, (S)—N^2-(2,4-Dichlorobenzyl)-N^1-(3,4-dichlorophenyl)-5-oxopyrrolidine-1,2-dicarboxamide] | stable | poorly soluble | more than 6 fold | no toxic effect | delayed | 20 |  |  |  |  | 
2 | O=C(NCc1ccc(Cl)cc1Cl)[C@@H]1CCC(=O)N1C(=O)Nc1ccc(Cl)nc1 [HEI3090, (S)—N^1-(6-Chloropyridin-3-yl)-N^2-(2,4-dichlorobenzyl)-5-oxopyrrolidine-1,2-dicarboxamide] | stable | more soluble |  |  |  |  | 3 | less M-MDSC | 8 | 10 | enhanced large pore opening in presence of BzATP
